The record followed here is article PMC3914206.

Common to all, as to type: binding
The target in test [1] is T1, panel of 442 kinases (Homo sapiens, UniProt O75582).
T1 construct: purchased KINOMEscan
To be noted: Compound Concentration 10 µM. An excerpt:
(§1) We assessed the selectivity of members of this scaffold using the KINOMEscan methodology across a near comprehensive panel of 442 kinases [[18,27]].

Test [2] addresses T2, panel of 442 kinases (Homo sapiens, UniProt Q15569).
T2 construct: purchased KINOMEscan
Particulars: kinase TESK1; compound concentration 10 µM.
From the text: as §1

Test [3] has as its target T3, panel of 442 kinases (Homo sapiens, UniProt O43283).
T3 construct: purchased KINOMEscan
T3 sequence (O43283 1-966): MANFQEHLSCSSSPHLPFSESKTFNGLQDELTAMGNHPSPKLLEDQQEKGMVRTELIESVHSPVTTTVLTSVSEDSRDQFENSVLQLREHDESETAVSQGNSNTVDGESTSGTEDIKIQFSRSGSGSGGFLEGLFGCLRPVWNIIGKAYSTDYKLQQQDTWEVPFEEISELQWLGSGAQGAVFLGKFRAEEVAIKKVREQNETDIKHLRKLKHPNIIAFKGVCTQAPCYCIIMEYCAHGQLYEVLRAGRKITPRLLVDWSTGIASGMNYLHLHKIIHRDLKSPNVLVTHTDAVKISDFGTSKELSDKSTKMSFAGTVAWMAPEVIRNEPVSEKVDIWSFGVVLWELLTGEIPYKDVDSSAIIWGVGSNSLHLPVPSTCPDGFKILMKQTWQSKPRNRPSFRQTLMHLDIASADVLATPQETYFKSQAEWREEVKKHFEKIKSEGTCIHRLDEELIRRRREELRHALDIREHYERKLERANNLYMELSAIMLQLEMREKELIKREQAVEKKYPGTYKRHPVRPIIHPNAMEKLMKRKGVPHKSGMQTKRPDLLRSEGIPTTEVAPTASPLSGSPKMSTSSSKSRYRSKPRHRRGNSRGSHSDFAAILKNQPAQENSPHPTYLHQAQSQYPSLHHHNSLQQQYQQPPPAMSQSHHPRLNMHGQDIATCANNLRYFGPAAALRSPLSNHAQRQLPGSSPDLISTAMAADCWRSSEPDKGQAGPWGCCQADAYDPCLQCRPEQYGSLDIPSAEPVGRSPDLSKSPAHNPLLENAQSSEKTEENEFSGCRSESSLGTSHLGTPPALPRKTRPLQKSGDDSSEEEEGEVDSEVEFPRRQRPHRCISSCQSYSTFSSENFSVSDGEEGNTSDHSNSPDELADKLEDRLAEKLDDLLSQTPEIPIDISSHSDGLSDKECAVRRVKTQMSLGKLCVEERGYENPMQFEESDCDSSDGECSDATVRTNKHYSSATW
To be noted: Compound Concentration 10 µM.
From the text: as §1

T1 sequence (O75582 whole entry): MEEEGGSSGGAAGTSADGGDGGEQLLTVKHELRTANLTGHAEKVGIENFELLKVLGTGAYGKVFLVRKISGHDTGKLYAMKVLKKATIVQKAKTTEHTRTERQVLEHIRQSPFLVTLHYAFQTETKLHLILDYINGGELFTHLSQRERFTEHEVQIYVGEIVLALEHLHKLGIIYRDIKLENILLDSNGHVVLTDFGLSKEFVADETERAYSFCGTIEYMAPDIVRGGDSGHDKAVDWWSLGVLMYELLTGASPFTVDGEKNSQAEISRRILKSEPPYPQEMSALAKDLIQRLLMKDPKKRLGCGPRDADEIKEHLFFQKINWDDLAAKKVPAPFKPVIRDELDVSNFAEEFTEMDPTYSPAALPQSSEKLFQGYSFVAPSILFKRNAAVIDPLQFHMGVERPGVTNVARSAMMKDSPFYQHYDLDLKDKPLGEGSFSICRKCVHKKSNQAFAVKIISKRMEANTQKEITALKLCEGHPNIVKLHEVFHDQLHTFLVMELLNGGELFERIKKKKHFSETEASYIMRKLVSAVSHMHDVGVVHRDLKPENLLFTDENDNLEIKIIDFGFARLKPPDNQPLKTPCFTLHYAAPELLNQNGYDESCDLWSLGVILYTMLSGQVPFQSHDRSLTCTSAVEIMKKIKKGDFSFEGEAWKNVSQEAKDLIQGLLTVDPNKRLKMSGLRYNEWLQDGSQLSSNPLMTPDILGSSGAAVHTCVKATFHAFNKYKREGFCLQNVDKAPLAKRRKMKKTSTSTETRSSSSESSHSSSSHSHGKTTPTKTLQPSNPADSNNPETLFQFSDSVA
T2 sequence (Q15569 whole entry): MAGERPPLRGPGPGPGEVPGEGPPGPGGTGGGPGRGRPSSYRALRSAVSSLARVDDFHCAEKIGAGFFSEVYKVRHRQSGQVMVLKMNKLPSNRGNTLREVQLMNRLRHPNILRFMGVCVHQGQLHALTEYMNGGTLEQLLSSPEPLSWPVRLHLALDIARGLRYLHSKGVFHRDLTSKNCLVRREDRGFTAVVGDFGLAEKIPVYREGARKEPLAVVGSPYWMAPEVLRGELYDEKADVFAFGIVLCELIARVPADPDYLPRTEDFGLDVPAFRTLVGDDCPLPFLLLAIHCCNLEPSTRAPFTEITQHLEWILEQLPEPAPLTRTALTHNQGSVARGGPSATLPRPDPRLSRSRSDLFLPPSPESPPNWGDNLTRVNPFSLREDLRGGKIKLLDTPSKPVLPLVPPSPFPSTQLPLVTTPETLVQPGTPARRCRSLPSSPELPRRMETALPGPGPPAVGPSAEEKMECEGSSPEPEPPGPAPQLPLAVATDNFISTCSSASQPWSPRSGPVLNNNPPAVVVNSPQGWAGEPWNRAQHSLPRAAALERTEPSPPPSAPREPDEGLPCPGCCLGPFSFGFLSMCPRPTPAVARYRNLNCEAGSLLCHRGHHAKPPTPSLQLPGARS

For the compound `COc1cc(C(=O)N2CCC(N3CCN(C)CC3)CC2)ccc1Nc1ncc2c(n1)N(C1CCCC1)c1ccccc1C(=O)N2C` [Compound 25, 11-cyclopentyl-2-((2-methoxy-4-(4-(4-methylpiperazin-1-yl)piperidine-1-carbonyl)phenyl)amino)-5-methyl-5H-benzo[e]pyrimido[5,4-b][1,4]diazepin-6(11H)-one], at panel of 442 kinases [1], the “KINOMEscan: RPS6KA5(Kin.Dom.1-N-terminal)” value amounted to 100 and the “KINOMEscan: RPS6KA5(Kin.Dom.2-C-terminal)” value is on record as 100. At panel of 442 kinases [2], the “% Ctrl, TESK1” value was 100 % Ctrl. In addition, on panel of 442 kinases [3], the “KINOMEscan: LZK” value came to 100.

Turning to `COc1cc(C(=O)N2CCC(N3CCN(C)CC3)CC2)ccc1Nc1ncc2c(n1)N1CCc3cccc(c31)C(=O)N2C` [Compound 24], the “KINOMEscan: RPS6KA5(Kin.Dom.2-C-terminal)” value on panel of 442 kinases [1] stood at 43. In addition, the “% Ctrl, TESK1” value at panel of 442 kinases [2] is listed as 84 % Ctrl.

Consider `COc1cc(C(=O)N2CCC(N3CCN(C)CC3)CC2)ccc1Nc1ncc2c(n1)N(C)c1ccccc1C(=O)N2C` [15 (LRRK2-IN-1)], for which, at panel of 442 kinases [1], the “KINOMEscan: RPS6KA5(Kin.Dom.1-N-terminal)” value is listed as 96 and the “KINOMEscan: RPS6KA5(Kin.Dom.2-C-terminal)” value was determined as 92. Moreover, the “% Ctrl, TESK1” value on panel of 442 kinases [2] stood at 82 % Ctrl. Also, the “KINOMEscan: LZK” value on panel of 442 kinases [3] is 100.

With `CCOc1cc(C(=O)N2CCC(N3CCN(C)CC3)CC2)ccc1Nc1ncc2c(n1)N(C1CCCC1)c1ccccc1C(=O)N2C` [Compound 26], at panel of 442 kinases [1], the “KINOMEscan: RPS6KA5(Kin.Dom.1-N-terminal)” value is given as 100 and the “KINOMEscan: RPS6KA5(Kin.Dom.2-C-terminal)” value is given as 86. The “% Ctrl, TESK1” value on panel of 442 kinases [2] amounted to 100 % Ctrl. Besides, the “KINOMEscan: LZK” value on panel of 442 kinases [3] is 92.
